# Test results as given in patent US20080014186A1, “Hla-A24 or Hla-A2 Binding Peptides of Parathyroid Hormone-Related Protein” (GREEN PEPTIDE CO., LTD., priority 2004, published 2008).
# Key:
# [1] = test system: IgG in plasma of HLA-A24^+ healthy donors and prostate cancer patients; assay: Peptide-specific IgG in plasma by ELISA (HLA-A24-binding PTHrP peptides); set-up: species or system human; details: for IgG reactive to the peptide in plasma: 1:100-diluted plasma
# Excerpt: The inventors previously reported that IgGs reactive to CTL epitope peptides were detected in healthy donors and patients with various types of cancers. IgGs reactive to prostate-related antigens were also detected in healthy donors and prostate cancer patients. It was examined, therefore, whether IgG reactive to the four PTHrP-derived peptides, PTHrP 36-44, PTHrP 102-111, PTHrP 25-34, and PTHrP 110-119, could be detected in the plasma of cancer patients and healthy donors.
# Peptide-specific IgG levels in the plasma were measured by ELISA, as previously reported. In brief, peptide (20 μg/well)-immobilized plates were blocked with Block Ace (Yukijirushi, Tokyo, Japan) and washed with 0.05% Tween20-PBS, after which 100 μl/well of plasma sample diluted with 0.05% Tween20-Block Ace was added to the plate. After 2 hours incubation at 37° C., the plates were washed and further incubated for 2 hours with a 1:1000-diluted rabbit anti-human IgG (γ-chain-specific) (DAKO, Glostrup, Denmark). The plates were washed, and then 100 μl of 1:100-diluted goat anti-rabbit IgG-conjugated horseradish peroxidase (EnVision, DAKO) was added to each well, and the plates were then incubated at room temperature for 40 min. After the plates were washed once, 100 μl/well of tetramethyl benzidine substrate solution (KPL, Guildford, UK) was added, and the reaction was stopped by the addition of 1 M phosphoric acid. The values are shown as optical density (OD) units/ml, and responses to the HIV peptide were subtracted. IgG reactive to a corresponding PTHrP peptide was judged to be positive when the difference of the OD in 1:100-diluted plasma exceeded 0.05. The results that IgG reactive to either the PTHrP102-111 or the […] peptide was detected in 8 of 10 healthy donors and in 7 of 10 prostate cancers are shown in Table 2 hereinafter.
# To confirm the specificity of IgG to the indicated PTHrP peptide, 100 μl of sample plasma from either HD #1 and Pt #6 was cultured in a plate pre-coated with either a corresponding PTHrP peptide or an irrelevant PTHrP peptide. Thereafter, the levels of IgG reactive to the PTHrP 102-111 peptide or the PTHrP 110-119 peptide in the resulting supernatants were determined by ELISA.
# [2] = test system: PBMCs of HLA-A24^+ healthy donors and prostate cancer patients; assay: Assay for peptide-specific CTLs in PBMCs (IFN-γ ELISA, peptide-pulsed C1R-A24 cells); format: cell-based, human; details: for IFN-γ production: C1R-A24 cells, HIV peptide background subtracted
# Description: To investigate the immunogenicity of these four PTHrP peptides, the PBMCs of 10 HLA-A24^+ healthy donors and 10 HLA-A24^+ prostate cancer patients were stimulated with each of the four PTHrP peptides and were examined for their IFN-γ production in response to C1R-A24 cells, which were pre-pulsed with either a corresponding PTHrP peptide or the HIV peptide. Flu- and EBV-derived peptides were used as controls.
# The assay for detection of peptide-specific CTLs in PBMCs was performed according to a previously reported method. In brief, PBMCs (1 X 10^5 cells/well) were incubated with […] of each peptide in a U-bottom-type 96-well microculture plate (Nunc, Roskilde, Denmark) at a volume of 200 μl of culture medium. The culture medium consisted of 45% RPMI-1640, 45% AIM-V medium (Gibco BRL), 10% FCS, 100 U/ml of IL-2, and 0.1 mM MEM nonessential amino acid solution (Gibco, BRL). Half of the culture medium was removed and replaced with new medium containing a corresponding peptide (20 μg/ml) every 3 days. On the 15th day of culture, the cultured cells were separated into 4 wells, and two wells were used for PTHrP peptide-pulsed C1R-A24 cells, and the other two wells were used for the HIV peptide-pulsed C1R-A24 cells. After an 18-hr incubation period, the supernatants were collected, and the level of IFN-γ was determined by ELISA (limit of sensitivity: 10 pg/ml).
# The assay was carried out in quadruplicate, and the mean of two wells which show the highest significance compared to the control is shown in Table 1.
# It was then determined whether PBMCs stimulated by either the PTHrP 36-44 or the PTHrP 102-111 peptide could induce prostate cancer-reactive CTLs from HLA-A24^+ healthy donors and prostate cancer patients. PBMCs from HLA-A24^+ healthy donors and prostate cancer patients were repeatedly stimulated with these PTHrP peptides. On day 15, half of the cultured cells were harvested, pooled from 4 wells, and cultured with C1R-A24 cells, which were pre-pulsed with the HIV peptide (open symbol) and the indicated PTHrP peptide (closed symbol) for 18-hr. The levels of IFN-γ in the supernatants were then determined by ELISA.
# [3] = HLA-A24^+ prostate cancer patient #1
# [4] = HLA-A24^+ prostate cancer patient #2
# [5] = HLA-A24^+ prostate cancer patient #3
# [6] = HLA-A24^+ prostate cancer patient #4
# [7] = HLA-A24^+ prostate cancer patient #5
# [8] = HLA-A24^+ prostate cancer patient #6
# [9] = HLA-A24^+ prostate cancer patient #7
# [10] = HLA-A24^+ prostate cancer patient #8
# [11] = HLA-A24^+ prostate cancer patient #9
# [12] = HLA-A24^+ prostate cancer patient #10
# [13] = HLA-A24^+ prostate cancer patients
sequence,measurement,setting,value
KVETYKEQPL [PTHrP 110-119],IgG reactive to the peptide in plasma,[1]; HLA-A24^+ healthy donor #1,+ (IgG reactive to a corresponding peptide was judged to be positive when the difference of the OD in 1:100-diluted plasma exceeded 0.05.)
same,IgG reactive to the peptide in plasma,[1]; HLA-A24^+ healthy donor #2,+ (IgG reactive to a corresponding peptide was judged to be positive when the difference of the OD in 1:100-diluted plasma exceeded 0.05.)
same,IgG reactive to the peptide in plasma,[1]; HLA-A24^+ healthy donor #3,+ (IgG reactive to a corresponding peptide was judged to be positive when the difference of the OD in 1:100-diluted plasma exceeded 0.05.)
same,IgG reactive to the peptide in plasma,[1]; HLA-A24^+ healthy donor #4,− (IgG reactive to a corresponding peptide was judged to be positive when the difference of the OD in 1:100-diluted plasma exceeded 0.05.)
same,IgG reactive to the peptide in plasma,[1]; HLA-A24^+ healthy donor #5,+ (IgG reactive to a corresponding peptide was judged to be positive when the difference of the OD in 1:100-diluted plasma exceeded 0.05.)
same,IgG reactive to the peptide in plasma,[1]; HLA-A24^+ healthy donor #6,− (IgG reactive to a corresponding peptide was judged to be positive when the difference of the OD in 1:100-diluted plasma exceeded 0.05.)
same,IgG reactive to the peptide in plasma,[1]; HLA-A24^+ healthy donor #7,+ (IgG reactive to a corresponding peptide was judged to be positive when the difference of the OD in 1:100-diluted plasma exceeded 0.05.)
same,IgG reactive to the peptide in plasma,[1]; HLA-A24^+ healthy donor #8,+ (IgG reactive to a corresponding peptide was judged to be positive when the difference of the OD in 1:100-diluted plasma exceeded 0.05.)
same,IgG reactive to the peptide in plasma,[1]; HLA-A24^+ healthy donor #9,+ (IgG reactive to a corresponding peptide was judged to be positive when the difference of the OD in 1:100-diluted plasma exceeded 0.05.)
same,IgG reactive to the peptide in plasma,[1]; HLA-A24^+ healthy donor #10,+ (IgG reactive to a corresponding peptide was judged to be positive when the difference of the OD in 1:100-diluted plasma exceeded 0.05.)
same,"IgG reactive to the peptide detected, number of donors",[1]; HLA-A24^+ healthy donors,8 of 10
same,Total (IgG-positive donors / donors tested),[1]; HLA-A24^+ healthy donors,8/10
same,IgG reactive to the peptide in plasma,[1]; [3],+ (IgG reactive to a corresponding peptide was judged to be positive when the difference of the OD in 1:100-diluted plasma exceeded 0.05.)
same,IgG reactive to the peptide in plasma,[1]; [4],+ (IgG reactive to a corresponding peptide was judged to be positive when the difference of the OD in 1:100-diluted plasma exceeded 0.05.)
same,IgG reactive to the peptide in plasma,[1]; [5],− (IgG reactive to a corresponding peptide was judged to be positive when the difference of the OD in 1:100-diluted plasma exceeded 0.05.)
same,IgG reactive to the peptide in plasma,[1]; [6],− (IgG reactive to a corresponding peptide was judged to be positive when the difference of the OD in 1:100-diluted plasma exceeded 0.05.)
same,IgG reactive to the peptide in plasma,[1]; [7],− (IgG reactive to a corresponding peptide was judged to be positive when the difference of the OD in 1:100-diluted plasma exceeded 0.05.)
same,IgG reactive to the peptide in plasma,[1]; [8],+ (IgG reactive to a corresponding peptide was judged to be positive when the difference of the OD in 1:100-diluted plasma exceeded 0.05.)
same,IgG reactive to the peptide in plasma,[1]; [9],+ (IgG reactive to a corresponding peptide was judged to be positive when the difference of the OD in 1:100-diluted plasma exceeded 0.05.)
same,IgG reactive to the peptide in plasma,[1]; [10],+ (IgG reactive to a corresponding peptide was judged to be positive when the difference of the OD in 1:100-diluted plasma exceeded 0.05.)
same,IgG reactive to the peptide in plasma,[1]; [11],+ (IgG reactive to a corresponding peptide was judged to be positive when the difference of the OD in 1:100-diluted plasma exceeded 0.05.)
same,IgG reactive to the peptide in plasma,[1]; [12],+ (IgG reactive to a corresponding peptide was judged to be positive when the difference of the OD in 1:100-diluted plasma exceeded 0.05.)
same,"IgG reactive to the peptide detected, number of patients",[1]; [13],7 of 10
same,Total (IgG-positive patients / patients tested),[1]; [13],7/10
same,Peptide-specific absorption of IgG (level after culturing plasma in corresponding peptide-coated wells),"[1]; plasma from HD #1 and Pt #6, FIG. 3B",significantly diminished
same,IFN-γ production,[2]; HLA-A24^+ healthy donor #1,394 pg/mL
same,IFN-γ production,[2]; HLA-A24^+ healthy donor #2,17 pg/mL
same,IFN-γ production,[2]; HLA-A24^+ healthy donor #3,20 pg/mL
same,IFN-γ production,[2]; HLA-A24^+ healthy donor #4,2 pg/mL
same,IFN-γ production,[2]; HLA-A24^+ healthy donor #5,38 pg/mL
same,IFN-γ production,[2]; HLA-A24^+ healthy donor #6,357 pg/mL
same,IFN-γ production,[2]; HLA-A24^+ healthy donor #7,0 pg/mL
same,IFN-γ production,[2]; HLA-A24^+ healthy donor #8,1017 pg/mL
same,IFN-γ production,[2]; HLA-A24^+ healthy donor #9,61 pg/mL
same,IFN-γ production,[2]; HLA-A24^+ healthy donor #10,0 pg/mL
same,"induced peptide-specific CTLs, number of donors",[2]; HLA-A24^+ healthy donors,3 of 10
same,Total (donors with significant peptide-specific IFN-γ production / donors tested),"[2]; HLA-A24^+ healthy donors, p < 0.05",3/10
same,IFN-γ production,[2]; [3],0 pg/mL
same,IFN-γ production,[2]; [4],9 pg/mL
same,IFN-γ production,[2]; [5],38 pg/mL
same,IFN-γ production,[2]; [6],19 pg/mL
same,IFN-γ production,[2]; [7],10 pg/mL
same,IFN-γ production,[2]; [8],14 pg/mL
same,IFN-γ production,[2]; [9],0 pg/mL
same,IFN-γ production,[2]; [10],23 pg/mL
same,IFN-γ production,[2]; [11],0 pg/mL
same,IFN-γ production,[2]; [12],118 pg/mL
same,"induced peptide-specific CTLs (peptide-specific IFN-γ production), number of patients",[2]; [13],1 of 10
same,Total (patients with significant peptide-specific IFN-γ production / patients tested),"[2]; HLA-A24^+ prostate cancer patients, p < 0.05",1/10
